Assay results taken from ChEMBL document CHEMBL4825697, “Optimization and SAR research at the piperazine and phenyl rings of JNJ4796 as new anti-influenza A virus agents, part 1” (Eur J Med Chem, 2021).

Experiments:
[1] = Cytotoxicity against dog MDCK cells assessed as reduction in cell viability; format: cell-based, Canis lupus familiaris
Influenza A virus = test: Antiviral activity against Influenza A virus (H1N1) infected in dog MDCK cells assessed as inhibition of surface glycoprotein hemagglutinin; format: functional, organism-based
[2] = Selectivity index, ratio of CC50 for cytotoxicity against dog MDCK cells to IC50 for antiviral activity against Influenza A virus […] infected in dog MDCK cells; format: toxicity, cell-based; details: read-out: Selectivity Index
hERG (KCNH2) = hERG (KCNH2) (Homo sapiens, UniProt Q12809); test: Inhibition of human ERG at 10 uM
hERG (KCNH2), sequence (Q12809 whole entry): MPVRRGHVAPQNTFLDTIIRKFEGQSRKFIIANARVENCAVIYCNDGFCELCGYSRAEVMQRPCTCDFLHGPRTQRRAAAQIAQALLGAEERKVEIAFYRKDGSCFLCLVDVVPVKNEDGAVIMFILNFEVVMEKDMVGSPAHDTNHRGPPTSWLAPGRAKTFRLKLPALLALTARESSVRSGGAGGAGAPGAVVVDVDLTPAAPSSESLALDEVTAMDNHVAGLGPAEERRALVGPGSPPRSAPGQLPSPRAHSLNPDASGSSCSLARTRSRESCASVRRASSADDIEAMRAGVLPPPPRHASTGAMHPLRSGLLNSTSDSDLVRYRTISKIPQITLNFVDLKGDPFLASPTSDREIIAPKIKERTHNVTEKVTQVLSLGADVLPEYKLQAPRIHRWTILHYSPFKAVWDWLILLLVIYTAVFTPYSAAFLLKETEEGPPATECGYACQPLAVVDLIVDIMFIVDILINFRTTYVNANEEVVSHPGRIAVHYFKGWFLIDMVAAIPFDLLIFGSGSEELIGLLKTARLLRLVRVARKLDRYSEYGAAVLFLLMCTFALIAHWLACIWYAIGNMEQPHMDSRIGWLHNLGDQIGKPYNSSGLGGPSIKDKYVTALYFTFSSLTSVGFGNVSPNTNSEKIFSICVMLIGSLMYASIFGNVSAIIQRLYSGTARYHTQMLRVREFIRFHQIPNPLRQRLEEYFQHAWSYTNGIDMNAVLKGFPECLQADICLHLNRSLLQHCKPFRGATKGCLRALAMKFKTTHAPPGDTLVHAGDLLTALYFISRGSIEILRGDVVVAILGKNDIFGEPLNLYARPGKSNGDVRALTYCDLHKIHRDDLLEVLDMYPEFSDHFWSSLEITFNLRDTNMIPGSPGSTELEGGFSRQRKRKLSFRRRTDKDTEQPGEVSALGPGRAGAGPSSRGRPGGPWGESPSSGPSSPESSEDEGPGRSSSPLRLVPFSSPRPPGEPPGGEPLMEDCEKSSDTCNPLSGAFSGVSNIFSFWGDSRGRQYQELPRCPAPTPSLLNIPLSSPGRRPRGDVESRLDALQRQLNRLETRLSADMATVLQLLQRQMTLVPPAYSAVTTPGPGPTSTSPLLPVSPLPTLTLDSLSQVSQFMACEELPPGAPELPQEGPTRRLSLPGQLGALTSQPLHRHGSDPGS

[3] = Half life in Balb/c mouse at 25 mg/kg, po administered as single dose; format: ADME, organism-based; details: in vivo
[4] = Cmax in Balb/c mouse at 25 mg/kg, po administered as single dose; format: ADME, organism-based; parameters: route oral, dose 25 mg/kg; details: in vivo
[5] = AUC (0 to infinity) in Balb/c mouse at 25 mg/kg, po administered as single dose; format: ADME, organism-based; parameters: time infinity, route oral, dose 25 mg/kg; details: in vivo
[6] = Tmax in Balb/c mouse at 25 mg/kg, po administered as single dose; format: ADME, organism-based; details: in vivo

SMILES | CC50 [1] | IC50 (Influenza A virus) | also measured
CC(=O)Nc1ccc2oc(-c3ccnc(C(=O)N4CCN(C(c5ccc(Br)cc5)c5nnn(C)n5)CC4)c3)nc2c1 (stereo not drawn) | > 50 µM | 1.43 µM | –
COc1ccc(C(c2nnn(C)n2)N2CCN(C(=O)c3cc(-c4nc5cc(NC(C)=O)ccc5o4)ccn3)CC2)cc1 (stereo not drawn) | > 50 µM | 12 µM | –
CC(=O)Nc1ccc2oc(-c3ccnc(C(=O)N4CCC5(CC4)CCN(C(c4ccccc4)c4nnn(C)n4)CC5)c3)nc2c1 (stereo not drawn) | > 50 µM | > 50 µM | –
CC(=O)Nc1ccc2oc(-c3ccnc(C(=O)N4CC5CC4CN5C(c4ccccc4)c4nnn(C)n4)c3)nc2c1 (stereo not drawn) | > 50 µM | 18.5 µM | –
CC(=O)Nc1ccc2oc(-c3ccnc(C(=O)N4CCN(C(c5ccc(OC(F)(F)F)cc5)c5nnn(C)n5)CC4)c3)nc2c1 (stereo not drawn) | > 50 µM | 3.18 µM | –
CC(=O)Nc1ccc2oc(-c3ccnc(C(=O)N4CCN(C(c5cccc(F)c5)c5nnn(C)n5)CC4)c3)nc2c1 (stereo not drawn) | > 50 µM | 2.47 µM | –
CC(=O)Nc1ccc2oc(-c3ccnc(C(=O)N4CCN([C@@H](c5ccccc5)c5nnn(C)n5)CC4)c3)nc2c1 | > 200 µM | 1.9 µM | selectivity ratio [2]: > 105
CC(=O)Nc1ccc2oc(-c3ccnc(C(=O)N4CCN(C(c5ccc(C)cc5)c5nnn(C)n5)CC4)c3)nc2c1 (stereo not drawn) | > 50 µM | 4.28 µM | –
CC(=O)Nc1ccc2oc(-c3ccnc(C(=O)N4CCN(C(c5nnn(C)n5)c5ccccc5F)CC4)c3)nc2c1 (stereo not drawn) | > 50 µM | 7.41 µM | –
NC(=O)c1ncn([C@@H]2O[C@H](CO)[C@@H](O)[C@H]2O)n1 [RIBAVIRIN] | > 200 µM | 4.28 µM | selectivity ratio [2]: > 46
CCOC(=O)C1=C[C@@H](OC(CC)CC)[C@H](NC(C)=O)[C@@H](N)C1 [OSELTAMIVIR] | > 200 µM | 3.44 µM | selectivity ratio [2]: > 58
CC(=O)Nc1ccc2oc(-c3ccnc(C(=O)N4CCN([C@H](c5ccccc5)c5nnn(C)n5)CC4)c3)nc2c1 | 144 µM | 0.04 µM | selectivity ratio [2]: 3590
CC(=O)Nc1ccc2oc(-c3ccnc(C(=O)N4CCN(C(c5ccccc5)c5nnn(C)n5)CC4)c3)nc2c1 (racemic) | > 50 µM | 0.35 µM | inhibition at 10 µM (hERG (KCNH2)): 53.8%; half-life [3]: 3.69 h; Cmax [4]: 572 ng/mL; AUC(0-inf) [5]: 1210 ng·h/mL; Tmax [6]: 0.25 h
CC(=O)Nc1ccc2oc(-c3ccnc(C(=O)N4CC5(CCN(C(c6ccccc6)c6nnn(C)n6)CC5)C4)c3)nc2c1 (stereo not drawn) | 32 µM | 7.41 µM | –
CC(=O)Nc1ccc2oc(-c3ccnc(C(=O)N4CCN([C@H](c5ccc(F)cc5)c5nnn(C)n5)CC4)c3)nc2c1 | > 200 µM | 0.03 µM | inhibition at 10 µM (hERG (KCNH2)): 13.2%; selectivity ratio [2]: > 6670; half-life [3]: 5.84 h; Cmax [4]: 866 ng/mL; AUC(0-inf) [5]: 1910 ng·h/mL; Tmax [6]: 0.33 h
CC(=O)Nc1ccc2oc(-c3ccnc(C(=O)N4CCN(C(c5ccc(C(F)(F)F)cc5)c5nnn(C)n5)CC4)c3)nc2c1 (stereo not drawn) | > 50 µM | 12.8 µM | –
CC(=O)Nc1ccc2oc(-c3ccnc(C(=O)N4CCN(C(c5ccc(F)cc5)c5nnn(C)n5)CC4)c3)nc2c1 (stereo not drawn) | > 50 µM | 0.27 µM | –
CC(=O)Nc1ccc2oc(-c3ccnc(C(=O)N4CCN([C@@H](c5ccc(F)cc5)c5nnn(C)n5)CC4)c3)nc2c1 | > 200 µM | 5.51 µM | selectivity ratio [2]: > 36
CC(=O)Nc1ccc2oc(-c3ccnc(C(=O)N4CCC5(CC4)CN(C(c4ccccc4)c4nnn(C)n4)C5)c3)nc2c1 (stereo not drawn) | > 50 µM | > 50 µM | –
CC(=O)Nc1ccc2oc(-c3ccnc(C(=O)N4CCN(C(c5ccc([N+](=O)[O-])cc5)c5nnn(C)n5)CC4)c3)nc2c1 (stereo not drawn) | > 50 µM | 7.41 µM | –
CC(=O)Nc1ccc2oc(-c3ccnc(C(=O)N4CCN(C(c5ccc(Cl)cc5)c5nnn(C)n5)CC4)c3)nc2c1 (stereo not drawn) | > 50 µM | 1.71 µM | –
